Experimental data published in paper PMC10937199 (ESMO Open, 2024).

Columns and labels:
[1] = healthy volunteers; cited from earlier work
[2] = tested on: patients with advanced solid tumors; assay: Safety; type: in vivo, human; conditions: Part A
[3] = tested on: patients with advanced solid tumors; assay: Safety; type: in vivo, human; conditions: Part FE
advanced solid tumors = assay: Best overall response per RECIST version 1.1, Part B; type: in vivo, human

COc1ccc([C@@H](O)c2cc(-c3ncnc4cc(N5CCOCC5)ccc34)c(F)cc2Cl)nn1 [Peposertib]
6 (54.5) n (%): Serious TEAE ([2]; 200 mg b.i.d., all grade) | Serious TEAE ([2]; 200 mg b.i.d., grade ≥3)
1 (20.0) n (%): IRR ([3]; 200 mg b.i.d., all grade) | Serious TEAE, peposertib related ([3]; 200 mg b.i.d., all grade) | TEAE leading to death ([3]; 200 mg b.i.d., all grade) | IRR ([3]; 200 mg b.i.d., grade ≥3) | Serious TEAE, peposertib related ([3]; 200 mg b.i.d., grade ≥3) | TEAE leading to death ([3]; 200 mg b.i.d., grade ≥3)
1 (25.0) n (%): Immune-related AE ([2]; 400 mg b.i.d., all grade) | Immune-related AE ([2]; 400 mg b.i.d., grade ≥3) | IRR ([3]; 100 mg b.i.d., all grade) | Serious TEAE, peposertib related ([3]; 100 mg b.i.d., all grade) | Serious TEAE, treatment related ([3]; 100 mg b.i.d., all grade) | TEAE leading to death ([3]; 100 mg b.i.d., all grade) | Serious TEAE, peposertib related ([3]; 100 mg b.i.d., grade ≥3) | Serious TEAE, treatment related ([3]; 100 mg b.i.d., grade ≥3) | TEAE leading to death ([3]; 100 mg b.i.d., grade ≥3) | TEAE, peposertib related ([3]; 100 mg b.i.d., grade ≥3) | TEAE, treatment related ([3]; 100 mg b.i.d., grade ≥3)
2 n: Serious TEAE: diarrhea ([2]; 250 mg b.i.d.) | Serious TEAE: disease progression ([2]; 300 mg b.i.d.)
2 (18.2) n (%): Immune-related AE ([2]; 200 mg b.i.d., all grade) | Immune-related AE ([2]; 200 mg b.i.d., grade ≥3) | TEAE, peposertib related ([2]; 200 mg b.i.d., grade ≥3)
4 (36.4) n (%): TEAE, treatment related ([2]; 200 mg b.i.d., grade ≥3)
11 (37.9%): Discontinuation of all study treatments due to AEs ([2]; all dose levels)
8 (27.6%): Peposertib-related TEAE: fatigue ([2]; all dose levels)
4 (66.7) n (%): Serious TEAE ([2]; 300 mg b.i.d., all grade) | TEAE, treatment related ([2]; 300 mg b.i.d., all grade) | Serious TEAE ([2]; 300 mg b.i.d., grade ≥3)
9 (31.0%): Peposertib-related TEAE: nausea ([2]; all dose levels) | Peposertib-related TEAE: vomiting ([2]; all dose levels)
3 (50.0) n (%): TEAE, peposertib related ([2]; 300 mg b.i.d., all grade)
5 (100.0) n (%): TEAE ([3]; 200 mg b.i.d., all grade) | TEAE, peposertib related ([3]; 200 mg b.i.d., all grade) | TEAE, treatment related ([3]; 200 mg b.i.d., all grade)
5 (55.6%): Peposertib-related TEAE: fatigue ([3]; all dose levels)
2 (50.0) n (%): TEAE, peposertib related ([2]; 100 mg b.i.d., all grade) | Serious TEAE, peposertib related ([2]; 250 mg b.i.d., all grade) | Immune-related AE ([2]; 250 mg b.i.d., grade ≥3) | Serious TEAE, peposertib related ([2]; 250 mg b.i.d., grade ≥3) | TEAE, peposertib related ([2]; 250 mg b.i.d., grade ≥3) | Serious TEAE ([3]; 100 mg b.i.d., all grade) | Serious TEAE ([3]; 100 mg b.i.d., grade ≥3)
only a mild food effect: Food effect [1]
3 (27.3) n (%): Serious TEAE, treatment related ([2]; 200 mg b.i.d., all grade) | Serious TEAE, treatment related ([2]; 200 mg b.i.d., grade ≥3)
4 (44.4%): Discontinuation of all study treatments due to AEs ([3]; all dose levels) | Peposertib-related TEAE: diarrhea ([3]; all dose levels)
25.0%: Peposertib-related pneumonitis ([2]; 250 mg b.i.d.)
2 (33.3) n (%): Immune-related AE ([2]; 300 mg b.i.d., all grade) | TEAEs leading to death ([2]; 300 mg b.i.d., all grade) | Immune-related AE ([2]; 300 mg b.i.d., grade ≥3) | TEAE, treatment related ([2]; 300 mg b.i.d., grade ≥3) | TEAEs leading to death ([2]; 300 mg b.i.d., grade ≥3)
3 (75.0) n (%): TEAE ([2]; 100 mg b.i.d., all grade) | TEAE, treatment related ([2]; 100 mg b.i.d., all grade) | Immune-related AE ([2]; 250 mg b.i.d., all grade) | Serious TEAE, treatment related ([2]; 250 mg b.i.d., all grade) | TEAE, peposertib related ([2]; 250 mg b.i.d., all grade) | TEAE, treatment related ([2]; 250 mg b.i.d., all grade) | Serious TEAE, treatment related ([2]; 250 mg b.i.d., grade ≥3) | TEAE, treatment related ([2]; 250 mg b.i.d., grade ≥3) | Serious TEAE, peposertib related ([2]; 400 mg b.i.d., all grade) | Serious TEAE, treatment related ([2]; 400 mg b.i.d., all grade) | Serious TEAE, peposertib related ([2]; 400 mg b.i.d., grade ≥3) | Serious TEAE, treatment related ([2]; 400 mg b.i.d., grade ≥3) | TEAE, peposertib related ([3]; 100 mg b.i.d., all grade) | TEAE, treatment related ([3]; 100 mg b.i.d., all grade) | TEAE ([3]; 100 mg b.i.d., grade ≥3)
3 (60.0) n (%): Serious TEAE ([3]; 200 mg b.i.d., all grade) | Serious TEAE ([3]; 200 mg b.i.d., grade ≥3) | TEAE, peposertib related ([3]; 200 mg b.i.d., grade ≥3)
0 n (%): IRR ([2]; 100 mg b.i.d., all grade) | Immune-related AE ([2]; 100 mg b.i.d., all grade) | Serious TEAE ([2]; 100 mg b.i.d., all grade) | Serious TEAE, peposertib related ([2]; 100 mg b.i.d., all grade) | Serious TEAE, treatment related ([2]; 100 mg b.i.d., all grade) | TEAEs leading to death ([2]; 100 mg b.i.d., all grade) | Treatment-related AE leading to death ([2]; 100 mg b.i.d., all grade) | IRR ([2]; 100 mg b.i.d., grade ≥3) | Immune-related AE ([2]; 100 mg b.i.d., grade ≥3) | Serious TEAE ([2]; 100 mg b.i.d., grade ≥3) | Serious TEAE, peposertib related ([2]; 100 mg b.i.d., grade ≥3) | Serious TEAE, treatment related ([2]; 100 mg b.i.d., grade ≥3) | TEAE ([2]; 100 mg b.i.d., grade ≥3) | TEAE, peposertib related ([2]; 100 mg b.i.d., grade ≥3) | TEAE, treatment related ([2]; 100 mg b.i.d., grade ≥3) | TEAEs leading to death ([2]; 100 mg b.i.d., grade ≥3) | Treatment-related AE leading to death ([2]; 100 mg b.i.d., grade ≥3) | Serious TEAE, peposertib related ([2]; 200 mg b.i.d., all grade) | TEAEs leading to death ([2]; 200 mg b.i.d., all grade) | Treatment-related AE leading to death ([2]; 200 mg b.i.d., all grade) | IRR ([2]; 200 mg b.i.d., grade ≥3) | Serious TEAE, peposertib related ([2]; 200 mg b.i.d., grade ≥3) | TEAEs leading to death ([2]; 200 mg b.i.d., grade ≥3) | Treatment-related AE leading to death ([2]; 200 mg b.i.d., grade ≥3) | IRR ([2]; 250 mg b.i.d., all grade) | TEAEs leading to death ([2]; 250 mg b.i.d., all grade) | Treatment-related AE leading to death ([2]; 250 mg b.i.d., all grade) | IRR ([2]; 250 mg b.i.d., grade ≥3) | TEAEs leading to death ([2]; 250 mg b.i.d., grade ≥3) | Treatment-related AE leading to death ([2]; 250 mg b.i.d., grade ≥3) | IRR ([2]; 300 mg b.i.d., all grade) | Serious TEAE, peposertib related ([2]; 300 mg b.i.d., all grade) | Treatment-related AE leading to death ([2]; 300 mg b.i.d., all grade) | IRR ([2]; 300 mg b.i.d., grade ≥3) | Serious TEAE, peposertib related ([2]; 300 mg b.i.d., grade ≥3) | TEAE, peposertib related ([2]; 300 mg b.i.d., grade ≥3) | Treatment-related AE leading to death ([2]; 300 mg b.i.d., grade ≥3) | IRR ([2]; 400 mg b.i.d., all grade) | TEAEs leading to death ([2]; 400 mg b.i.d., all grade) | Treatment-related AE leading to death ([2]; 400 mg b.i.d., all grade) | IRR ([2]; 400 mg b.i.d., grade ≥3) | TEAEs leading to death ([2]; 400 mg b.i.d., grade ≥3) | Treatment-related AE leading to death ([2]; 400 mg b.i.d., grade ≥3) | Immune-related AE ([3]; 100 mg b.i.d., all grade) | Treatment-related AE leading to death ([3]; 100 mg b.i.d., all grade) | IRR ([3]; 100 mg b.i.d., grade ≥3) | Immune-related AE ([3]; 100 mg b.i.d., grade ≥3) | Treatment-related AE leading to death ([3]; 100 mg b.i.d., grade ≥3) | Treatment-related AE leading to death ([3]; 200 mg b.i.d., all grade) | Treatment-related AE leading to death ([3]; 200 mg b.i.d., grade ≥3)
10 (90.9) n (%): TEAE, peposertib related ([2]; 200 mg b.i.d., all grade) | TEAE, treatment related ([2]; 200 mg b.i.d., all grade)
4 (80.0) n (%): TEAE ([3]; 200 mg b.i.d., grade ≥3) | TEAE, treatment related ([3]; 200 mg b.i.d., grade ≥3)
no patients: Patients with complete response (CR) or partial response (PR) (advanced solid tumors)
2 (40.0) n (%): Immune-related AE ([3]; 200 mg b.i.d., all grade) | Serious TEAE, treatment related ([3]; 200 mg b.i.d., all grade) | Immune-related AE ([3]; 200 mg b.i.d., grade ≥3) | Serious TEAE, treatment related ([3]; 200 mg b.i.d., grade ≥3)
4 (100.0) n (%): Serious TEAE ([2]; 250 mg b.i.d., all grade) | TEAE ([2]; 250 mg b.i.d., all grade) | Serious TEAE ([2]; 250 mg b.i.d., grade ≥3) | TEAE ([2]; 250 mg b.i.d., grade ≥3) | Serious TEAE ([2]; 400 mg b.i.d., all grade) | TEAE ([2]; 400 mg b.i.d., all grade) | TEAE, peposertib related ([2]; 400 mg b.i.d., all grade) | TEAE, treatment related ([2]; 400 mg b.i.d., all grade) | Serious TEAE ([2]; 400 mg b.i.d., grade ≥3) | TEAE ([2]; 400 mg b.i.d., grade ≥3) | TEAE, peposertib related ([2]; 400 mg b.i.d., grade ≥3) | TEAE, treatment related ([2]; 400 mg b.i.d., grade ≥3) | TEAE ([3]; 100 mg b.i.d., all grade)
31.6%: Best overall response of stable disease (SD) or non-CR/non-PD (advanced solid tumors; all dose levels)
2/4: Serious TEAE: sepsis ([3]; 100 mg b.i.d.)
5 (83.3) n (%): TEAE ([2]; 300 mg b.i.d., grade ≥3)
11 (100.0) n (%): TEAE ([2]; 200 mg b.i.d., all grade)
7 (63.6) n (%): TEAE ([2]; 200 mg b.i.d., grade ≥3)
6 (100.0) n (%): TEAE ([2]; 300 mg b.i.d., all grade)
1 (16.7) n (%): Serious TEAE, treatment related ([2]; 300 mg b.i.d., all grade) | Serious TEAE, treatment related ([2]; 300 mg b.i.d., grade ≥3)
